Source: patent US10561646B2, “EGFR inhibitor and pharmaceutically acceptable salt and polymorph thereof, and use thereof” (SHANGHAI HAIYAN PHARMACEUTICAL TECHNOLOGY CO., LTD., priority 2015, dated 2020)
Entries after “also recorded” stand apart in the source; their conditions may differ. Where two headings read alike, the source gives them in different places.

What was measured:
[1] = test system: NIH3T3 cells; experiment: Cytotoxicity against NIH3T3 cells, MTT assay; assay type: cell-based; details: Mus musculus, 72 h incubation
[2] = test system: H1975 cells; experiment: Activities of EGFR T790M inhibitor on cells by ELISA, H1975; assay type: cell-based; details: Homo sapiens, NCI-H1975
[3] = test system: A431 cells; experiment: Cytostatic activity by MTT method, A431; assay type: cell-based
[4] = test system: H1975 cells; experiment: Cytostatic activity by MTT method, H1975; assay type: cell-based
[5] = test system: A431 cells; experiment: Activities on cells by ELISA, A431 (EGF stimulated); assay type: cell-based; details: Homo sapiens, A-431
[6] = In vivo test of rats, pharmacokinetics after oral gavage; set-up: species or system SD rats; details: rat, oral gavage 5 mg/kg; for Area under the curve AUC / Half-life T1/2: plasma
[7] = Solid phase stability experiment (XRPD, HPLC, TGA after one week); assay type: physicochemical; details: for Purity (%): HPLC; for Weight loss (%): TGA; for crystal transition: XRPD
Protocol: An appropriate amount of samples were weighed and stored at 25° C./60% RH and 40° C./75% RH (unsealed), respectively. Another set of samples were sealed and kept as a control at 5° C. at the same time. All samples were characterized by XRPD, HPLC and TGA one week later, and the crystal form, purity and weight loss were tested.

[8] = Hygroscopicity / DVS test; assay type: physicochemical; details: for moisture absorbed: humidity increased to 80% RH at 25° C.
Protocol: Dynamic Vapor Sorption (DVS) curve: collected on DVS Intrinsic SMS (Surface Measurement Systems). The relative humidity at 25° C. is corrected with the deliquescent points of LiCl, Mg (NO3)2 and KCl.
The rate of weight loss increases when the humidity is reduced to 20% RH at 25° C.
The DVS test was performed on crystal form II sample at a constant temperature of 25° C.
In order to assess the stability of anhydrous crystal form I and hydrate crystal form II under different humidity conditions, DVS assay was performed on samples of anhydrous crystal form I and hydrate crystal form II at constant 25° C.
When the humidity reaches 20% RH, a turning point appears in the isothermal map of DVS, which is caused by the transition from anhydrous crystal form I to hydrate form II according to the XRPD comparison of the samples before and after the DVS assay shown in FIG. 32. The actual moisture absorbed is less than the moisture content of crystal form II sample due to the slow solid phase transition rate.

[9] = Storage of crystal form C-1 at 80° C. for 24 hours (XRPD, HPLC); assay type: physicochemical
[10] = Suspension competition test between crystal forms; assay type: physicochemical; details: for stability relationship crystal form II / IV: acetone/H2O (aw 0.6), about 5 minutes
Protocol: Firstly, the suspension of maleate crystal form C-1 in acetone was prepared at two temperature respectively, and filtered after balancing for about one hour.
In order to further confirm the stability relationship between anhydrous crystal form I and hydrate crystal form II under different water activity conditions at room temperature, the mixture of crystal form I and crystal form II was suspended and stirred in acetone/H2O solvent system with different water activities (aw—0.2/0.4/0.6/0.8).
In order to study the stability relationship between different hydrate crystal form II and IV at room temperature to 50° C., a suspension competition test was set up in aqueous system at room temperature and 50° C. respectively. Firstly, the free base suspension in acetone/H2O (aw—0.6) was prepared at room temperature and 50° C. respectively. After balancing at the corresponding temperature for about 1 hour, the suspension was filtered to obtain the near saturated solution at the corresponding temperature. An equal quantity of crystal form II and IV samples (about 6 mg each) was added to 0.8 ml of saturated solution to form a suspension which was magnetically stirred (−800 rpm) at room temperature and 50° C. for about 5 minutes, and sampled for XRPD test.

[11] = molecular target: T1, EGFR WT kinase (Homo sapiens, UniProt P00533); experiment: Wild type EGFR kinase inhibition test (z-lyte); assay type: biochemical
T1 construct: purchased Invitrogen PV3872

[12] = Dynamic solubility experiment in water, SGF, FaSSIF, FeSSIF; assay type: physicochemical; details: thermodynamic from solid, room temperature
[13] = room temperature, crude solubility

T1 sequence (P00533 25-1210): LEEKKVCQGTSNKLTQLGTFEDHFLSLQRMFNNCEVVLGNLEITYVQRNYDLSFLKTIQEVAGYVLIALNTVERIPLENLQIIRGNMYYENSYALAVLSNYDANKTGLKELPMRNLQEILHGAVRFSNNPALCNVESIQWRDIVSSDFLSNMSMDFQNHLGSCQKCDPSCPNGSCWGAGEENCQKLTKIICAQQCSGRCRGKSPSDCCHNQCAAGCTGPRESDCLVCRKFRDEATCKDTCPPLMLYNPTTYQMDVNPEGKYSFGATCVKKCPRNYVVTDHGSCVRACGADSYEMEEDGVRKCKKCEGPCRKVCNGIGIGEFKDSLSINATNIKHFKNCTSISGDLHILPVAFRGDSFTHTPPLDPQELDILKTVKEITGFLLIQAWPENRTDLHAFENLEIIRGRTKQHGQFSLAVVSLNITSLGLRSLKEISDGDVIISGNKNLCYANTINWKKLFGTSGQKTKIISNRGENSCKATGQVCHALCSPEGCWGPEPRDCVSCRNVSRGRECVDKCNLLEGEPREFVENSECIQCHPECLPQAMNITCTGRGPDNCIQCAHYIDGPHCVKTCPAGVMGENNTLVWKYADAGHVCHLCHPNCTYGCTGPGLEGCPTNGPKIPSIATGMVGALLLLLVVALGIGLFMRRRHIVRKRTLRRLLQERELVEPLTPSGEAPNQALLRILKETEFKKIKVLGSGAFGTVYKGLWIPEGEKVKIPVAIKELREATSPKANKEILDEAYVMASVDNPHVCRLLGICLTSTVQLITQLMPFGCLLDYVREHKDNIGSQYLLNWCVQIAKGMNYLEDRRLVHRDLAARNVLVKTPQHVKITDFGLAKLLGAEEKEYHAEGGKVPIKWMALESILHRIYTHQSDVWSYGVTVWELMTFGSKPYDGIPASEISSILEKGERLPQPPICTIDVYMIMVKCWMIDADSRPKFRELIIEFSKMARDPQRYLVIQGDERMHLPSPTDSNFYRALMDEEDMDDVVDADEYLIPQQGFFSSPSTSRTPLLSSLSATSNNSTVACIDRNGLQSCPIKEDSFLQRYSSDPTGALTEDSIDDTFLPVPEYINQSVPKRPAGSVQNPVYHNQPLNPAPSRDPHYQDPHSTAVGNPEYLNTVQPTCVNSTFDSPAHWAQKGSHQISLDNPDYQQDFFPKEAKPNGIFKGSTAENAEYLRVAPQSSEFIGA

## CN(C)C/C=C/C(=O)Nc1cc2c(Nc3ccc(F)c(Cl)c3)ncnc2cc1O[C@H]1CCOC1 [BIBW2992]
[1]
  IC50: 2750 nM

## C=CC(=O)Nc1cc(Nc2nccc(-c3cn(C)c4ccccc34)n2)c(OC)cc1N(C)CCN(C)C [comparative compound 1]
[2]
  IC50: 29 nM
[1]
  IC50: 3550 nM
[3]; Homo sapiens, A-431, 72 h incubation
  IC50: […]
[4]; Homo sapiens, NCI-H1975, 72 h incubation
  IC50: 13 nM
[5]
  IC50: […]

## C=CC(=O)Nc1cc(Nc2ncc(F)c(-c3cnn(C)c3)n2)c(OC)cc1N1CCC(N(C)C)CC1.Cl [crystal form A]
[6]
  Maximum plasma concentration Cmax: 93.3 ng/mL
  Area under the curve AUC: 1379 ng·h/mL
  Half-life T1/2: 7.44 h
[7]; 5° C. (control), sealed
  Purity (%): 99.45%
  Weight loss (%): 3.0%
[7]; 25° C./60% RH, unsealed
  Weight loss (%): 4.3%
  crystal transition: no
[7]; 40° C./75% RH, unsealed
  Weight loss (%): 3.4%
  crystal transition: no

## C=CC(=O)Nc1cc(Nc2ncc(F)c(-c3cnn(C)c3)n2)c(OC)cc1N1CCC(N(C)C)CC1.O=P(O)(O)O [crystal form B]
[6]
  Maximum plasma concentration Cmax: 93.2 ng/mL
  Area under the curve AUC: 1265 ng·h/mL
  Half-life T1/2: 7.04 h
[7]; 5° C. (control), sealed
  Purity (%): 99.56%
  Weight loss (%): 4.1%
[7]; 25° C./60% RH, unsealed
  Weight loss (%): 4.6%
  crystal transition: no
[7]; 40° C./75% RH, unsealed
  Weight loss (%): 4.5%
  crystal transition: no
[8]; 25° C.
  crystal form before and after the DVS test (XRPD): does not change

## C=CC(=O)Nc1cc(Nc2ncc(F)c(-c3cnn(C)c3)n2)c(OC)cc1N1CCC(N(C)C)CC1.O=C(O)/C=C\C(=O)O [crystal form C-1]
[6]
  Maximum plasma concentration Cmax: 86.3 ng/mL
  Area under the curve AUC: 1233 ng·h/mL
  Half-life T1/2: 7.92 h
[9]
  crystal form and HPLC purity before and after the test: did not change
[7]; 5° C. (control), sealed
  Purity (%): 99.39%
  Weight loss (%): 0.1%
[7]; 25° C./60% RH, unsealed
  Weight loss (%): 1.2%
  crystal transition: no
[7]; 40° C./75% RH, unsealed
  Weight loss (%): 1.3%
  crystal transition: no
[10]; acetone, room temperature and 50° C., stirring 5 minutes
  stability relationship crystal form C-1 / C-2: higher thermodynamic stability than crystal form C-2
[8]; 25° C.
  crystal form before and after the DVS test (XRPD): did not change
[8]; DVS, 25° C.
  hygroscopicity: slightly hygroscopic
[8]; DVS
  moisture absorbed: 0.3%

## C=CC(=O)Nc1cc(Nc2ncc(F)c(-c3cnn(C)c3)n2)c(OC)cc1N1CCC(N(C)C)CC1.O=C(O)C[C@H](O)C(=O)O [crystal form D]
[6]
  Maximum plasma concentration Cmax: 84.4 ng/mL
  Area under the curve AUC: 1202 ng·h/mL
  Half-life T1/2: 6.63 h
[7]; 5° C. (control), sealed
  Purity (%): 99.37%
  Weight loss (%): 1.6%
[7]; 25° C./60% RH, unsealed
  Weight loss (%): 1.3%
  crystal transition: no
[7]; 40° C./75% RH, unsealed
  Weight loss (%): 1.2%
  crystal transition: no

## C=CC(=O)Nc1cc(Nc2ncc(F)c(-c3cnn(C)c3)n2)c(OC)cc1N1CCC(N(C)C)CC1.O=C(O)CCCCC(=O)O [crystal form E]
[6]
  Maximum plasma concentration Cmax: 117 ng/mL
  Area under the curve AUC: 1660 ng·h/mL
  Half-life T1/2: 7.46 h
[7]; 5° C. (control), sealed
  Purity (%): 99.30%
  Weight loss (%): 0.1%
[7]; 25° C./60% RH, unsealed
  Weight loss (%): 0.5%
  crystal transition: no
[7]; 40° C./75% RH, unsealed
  Weight loss (%): 0.4%
  crystal transition: no
[8]; 25° C.
  crystal form before and after the DVS test (XRPD): did not change
[8]; DVS, 25° C.
  hygroscopicity: slightly hygroscopic
[8]; DVS
  moisture absorbed: 0.5%

## C=CC(=O)Nc1cc(Nc2ncc(F)c(-c3cnn(C)c3)n2)c(OC)cc1N1CCC(N(C)C)CC1 [crystal form II]
[10]; room temperature and 50° C.
  stability relationship crystal form II / IV: more stable than hydrate crystal form IV
[10]; acetone/H2O, aw 0.2/0.4/0.6/0.8, room temperature, three days
  stability relationship crystal form I / II: more stable
[8]; 25° C., humidity above 10% RH
  weight loss in DVS: essentially no weight loss; also recorded: almost no weight loss
[8]; DVS, 25° C., at 95% RH, after dewatering below 10% RH
  water absorbed: 6.9%

## C=CC(=O)Nc1cc(Nc2ncc(F)c(-c3cnn(C)c3)n2)c(OC)cc1N1CCC(N(C)C)CC1 [crystal form IV]
[10]; room temperature and 50° C.
  stability relationship crystal form II / IV: quickly converted to hydrate crystal form II

## C=CC(=O)Nc1cc(Nc2ncc(F)c(-c3cnn(C)c3)n2)c(OC)cc1N1CCC(N(C)C)CC1 [crystal form I]
[8]; 25° C.
  humidity at turning point of DVS isotherm (transition from anhydrous crystal form I to hydrate form II): 20 % RH

## C=CC(=O)Nc1cc(Nc2ncc(F)c(-c3cnn(C)c3)n2)c(OC)cc1N1CCC(N(C)C)CC1 [the free base of compound of formula X, N-(2-(4-(dimethylamino)piperidin-1-yl)-5-(5-fluoro-4-(1-methyl-1H-pyrazol-4-yl)pyrimidin-2-ylamino)-4-methoxyphenyl)acrylamide]
[11]
  inhibitory activities against EGFR wild-type enzyme, in words: weak inhibitory activities
[3]
  inhibitory activities against EGFR wild-type cells (A431 cells), in words: weak inhibitory activities
[4]
  inhibitory activities against EGFR mutant cells (H1975 cells), in words: strong inhibitory activities
[12]; fasting state simulated intestinal fluid (FaSSIF), FaSSIF, after 1 hour of solid dispersion
  solubility at 1 h: 4200 µg/mL
[12]; feeding state simulated intestinal fluid (FeSSIF), FeSSIF, after 1 hour of solid dispersion
  solubility at 1 h: ≥ 10500 µg/mL
[12]; simulated gastric fluid (SGF), simulated gastric fluid, SGF, after 1 hour of solid dispersion
  solubility at 1 h: ≥ 8500 µg/mL
[12]; fourth solvent (head is an image; water), after 1 hour
  solubility at 1 h: 10 µg/mL
[7]; 5° C. (control), sealed
  Purity (%): 99.23%
  Weight loss (%): 5.1%
[7]; 25° C./60% RH, unsealed
  Weight loss (%): 5.3%
  crystal transition: no
[7]; 40° C./75% RH, unsealed
  Weight loss (%): 6.2%
  crystal transition: no

## maleate
[13]; 1,4-dioxane
  Solubility S: S < 1.0 mg/ml
[13]; 2-methyltetrahydrofuran
  Solubility S: S < 0.9 mg/ml
[13]; N,N-dimethylacetamide
  Solubility S: S > 20.0 mg/ml
[13]; N-methylpyrrolidone
  Solubility S: S > 23.0 mg/ml
[13]; acetone
  Solubility S: S < 1.1 mg/ml
[13]; dimethyl sulfoxide
  Solubility S: S > 22.0 mg/ml
[13]; ethanol
  Solubility S: S < 1.1 mg/ml
[13]; ethyl acetate
  Solubility S: S < 0.9 mg/ml
[13]; isopropanol
  Solubility S: S < 0.9 mg/ml
[13]; isopropyl acetate
  Solubility S: S < 1.0 mg/ml
[13]; methyl isobutyl ketone
  Solubility S: S < 0.9 mg/ml
[13]; methyl tert-butyl ether
  Solubility S: S < 1.0 mg/ml
[13]; n-hexane
  Solubility S: S < 1.0 mg/ml
[13]; tetrahydrofuran
  Solubility S: S < 1.2 mg/ml
[13]; toluene
  Solubility S: S < 1.1 mg/ml
